Source: US7893062B2, “Pyrrolidine derivatives as dual NK1/NK3 receptor antagonists” (Hoffmann-La Roche Inc., priority 2007, dated 2011)

Columns and labels:
human NK1 receptor = human NK1 receptor (Homo sapiens, UniProt P25103); test: NK1 receptor affinity, [3H]substance P displacement in CHO cell membranes; format: binding; settings: human NK1 receptor in CHO cells, [3H]substance P 0.6 nM
Description: The affinity of test compounds for the NK1 receptor was evaluated at human NK1 receptors in CHO cells infected with the human NK1 receptor (using the Semliki virus expression system) and radiolabelled with [^3H]substance P (final concentration 0.6 nM). Binding assays were performed in HEPES buffer (50 mM, pH 7.4) containing BSA (0.04%) leupeptin (16.8 μg/ml), MnCl2 (3 mM) and phosphoramidon (2 μM). Binding assays consisted of 250 μl of membrane suspension (approximately 1.5 μg/well in a 96 well plate), […] of buffer of displacing agent and 125 μl of [^3H]substance P. Displacement curves were determined with at least seven concentrations of the compound. The assay tubes were incubated for 60 min at room temperature after which time the tube contents were rapidly filtered under vacuum through GF/C filters presoaked for 60 min with PEI (0.3%) with 3×1 ml washes of HEPES buffer (50 mM, pH 7.4). The radioactivity retained on the filters was measured by scintillation counting. All assays were performed in duplicate in at least 2 separate experiments. NK3

[1] = target: T1, human NK3 (hNK3) receptor (Homo sapiens, UniProt P29371); test: Recombinant hNK3 receptor affinity, [3H]SR142801 displacement; format: binding; settings: recombinant hNK3 membranes, [3H]SR142801 0.3 nM
T1 construct: expressed in transfected cells
T1 sequence (P29371 1-465): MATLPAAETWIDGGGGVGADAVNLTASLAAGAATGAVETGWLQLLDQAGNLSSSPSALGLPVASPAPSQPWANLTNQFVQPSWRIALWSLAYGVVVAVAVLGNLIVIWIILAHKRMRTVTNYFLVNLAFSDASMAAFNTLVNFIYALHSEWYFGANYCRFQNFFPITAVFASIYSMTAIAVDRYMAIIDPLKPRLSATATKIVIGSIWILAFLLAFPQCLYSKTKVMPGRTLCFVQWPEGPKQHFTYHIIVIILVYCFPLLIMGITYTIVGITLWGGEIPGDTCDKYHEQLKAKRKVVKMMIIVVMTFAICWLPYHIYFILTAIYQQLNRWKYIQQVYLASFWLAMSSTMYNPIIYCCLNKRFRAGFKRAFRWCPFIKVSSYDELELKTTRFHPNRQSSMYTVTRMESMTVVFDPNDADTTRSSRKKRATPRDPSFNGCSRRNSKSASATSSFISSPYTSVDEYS
Description: Recombinant human NK3 (hNK3) receptor affinity was determined in a 96 well plate assay, using [^3H]SR142801 (final concentration 0.3 nM) to radiolabel the hNK3 receptor in the presence of 10 concentrations of competing compound or buffer. Non specific binding was determined using 10 μM SB222200. Assay buffer consisted of Tris-HCl (50 mM, pH 7.4), BSA (0.1%), MnCl2 (4 mM) and phosphoramidon (1 μM). Membrane preparations of hNK3 receptors (approximately 2.5 μg/well in a 96 well plate) were used to initiate the incubation for 90 min at room temperature. This assay was terminated by rapid filtration under vacuum through GF/C filters, presoaked for 90 min with PEI (0.3%), with 3×0.5 ml washes of ice-cold Tris buffer (50 mM, pH 7.4) containing 0.1% BSA. The radioactivity retained on the filters was measured by scintillation counting. All assays were performed in duplicate in at least two separate experiments.

[2] = phase II trial, cited from earlier work

Chain of human NK1 receptor (P25103 whole entry): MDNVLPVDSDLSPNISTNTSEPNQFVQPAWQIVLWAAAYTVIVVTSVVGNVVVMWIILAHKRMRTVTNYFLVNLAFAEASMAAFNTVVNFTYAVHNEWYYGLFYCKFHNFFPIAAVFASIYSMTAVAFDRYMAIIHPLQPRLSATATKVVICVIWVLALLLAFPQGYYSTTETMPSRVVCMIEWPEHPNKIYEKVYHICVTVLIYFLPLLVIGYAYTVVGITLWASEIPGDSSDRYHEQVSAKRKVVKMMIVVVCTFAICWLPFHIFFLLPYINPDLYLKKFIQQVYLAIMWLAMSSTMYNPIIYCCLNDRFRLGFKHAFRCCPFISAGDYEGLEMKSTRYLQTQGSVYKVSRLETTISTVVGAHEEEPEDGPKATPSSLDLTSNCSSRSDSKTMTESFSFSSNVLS

Row | Structure (SMILES) | Ki (human NK1 receptor) [nM] | Ki [1] [nM] | activity on positive symptoms of schizophrenia ([2]; altered behaviour, delusion, hallucinations, extreme emotions, excited motor activity, incoherent speech) | activity in the treatment of negative symptoms of schizophrenia ([2]; depression, anhedonia, social isolation, memory and attention deficits)
1 | CN(C(=O)C(C)(C)c1cc(Cl)cc(Cl)c1)[C@@H]1CN(C(=O)N2CCOCC2)C[C@H]1c1ccc(F)cc1 (racemic) [Example 24, rac-2-(3,5-Dichloro-phenyl)-N-[(3S,4R)-4-(4-fluoro-phenyl)-1-(morpholine-4-carbonyl)-pyrrolidin-3-yl]-N-methyl-isobutyramide] | 1.92 | 200 | – | –
2 | CN(C(=O)C(C)(C)c1cc(Cl)cc(Cl)c1)[C@@H]1CN(C(=O)N2CCN(S(C)(=O)=O)CC2)C[C@H]1c1ccc(F)cc1 (racemic) [Example 23, rac-2-(3,5-Dichloro-phenyl)-N-[(3S,4R)-4-(4-fluoro-phenyl)-1-(4-methanesulfonyl-piperazine-1-carbonyl)-pyrrolidin-3-yl]-N-methyl-isobutyramide] | 1.12 | 92.4 | – | –
3 | CN(C(=O)C(C)(C)c1cc(C(F)(F)F)cc(C(F)(F)F)c1)[C@@H]1CN(C(=O)NCCO)C[C@H]1c1ccc(F)cc1 (racemic) [Example 26, rac-(3S,4R)-3-{[2-(3,5-Bis-trifluoromethyl-phenyl)-2-methyl-propionyl]-methyl-amino}-4-(4-fluoro-phenyl)-pyrrolidine-1-carboxylic acid (2-hydroxy-ethyl)-amide] | 0.634 | 212 | – | –
4 | CC(=O)N(C)C1(c2ccccc2)CCN(CCC[C@]2(c3ccc(Cl)c(Cl)c3)CCCN(C(=O)c3ccccc3)C2)CC1 [SR 142,801, Osanetant] | – | – | active | inactive
5 | CN(C(=O)C(C)(C)c1cc(C(F)(F)F)cc(C(F)(F)F)c1)[C@@H]1CN(C(=O)N(CCO)CCO)C[C@H]1c1ccc(F)cc1 (racemic) [Example 21, rac-(3S,4R)-3-{[2-(3,5-Bis-trifluoromethyl-phenyl)-2-methyl-propionyl]-methyl-amino}-4-(4-fluoro-phenyl)-pyrrolidine-1-carboxylic acid bis-(2-hydroxy-ethyl)-amide] | 1.08 | 204 | – | –
6 | CN(C(=O)C(C)(C)c1cc(Cl)cc(Cl)c1)[C@@H]1CN(C(=O)N2CCN(S(C)(=O)=O)CC2)C[C@H]1c1ccc(Cl)cc1 (racemic) [Example 55, rac-N-[(3S,4R)-4-(4-Chloro-phenyl)-1-(4-methanesulfonyl-piperazine-1-carbonyl)-pyrrolidin-3-yl]-2-(3,5-dichloro-phenyl)-N-methyl-isobutyramide] | 3.16 | 30 | – | –
7 | Cc1cc(F)ccc1[C@@H]1CN(C(=O)N2CCOCC2)C[C@H]1N(C)C(=O)C(C)(C)c1cc(C(F)(F)F)cc(C(F)(F)F)c1 (racemic) [Example 27, rac-2-(3,5-Bis-trifluoromethyl-phenyl)-N-[(3S,4R)-4-(4-fluoro-2-methyl-phenyl)-1-(morpholine-4-carbonyl)-pyrrolidin-3-yl]-N-methyl-isobutyramide] | 0.341 | 276 | – | –

Continued, in another order:

Row | Ki (human NK1 receptor) [nM] | Ki [1] [nM] | Structure (SMILES) | activity on positive symptoms of schizophrenia ([2]; altered behaviour, delusion, hallucinations, extreme emotions, excited motor activity, incoherent speech) | activity in the treatment of negative symptoms of schizophrenia ([2]; depression, anhedonia, social isolation, memory and attention deficits)
8 | 2.06 | 155 | CN(C(=O)C(C)(C)c1cc(C(F)(F)F)cc(C(F)(F)F)c1)[C@@H]1CN(C(=O)N2CCN(S(C)(=O)=O)CC2)C[C@H]1c1ccc(F)cc1 (racemic) [Example 15, rac-2-(3,5-Bis-trifluoromethyl-phenyl)-N-[(3S,4R)-4-(4-fluoro-phenyl)-1-(4-methanesulfonyl-piperazine-1-carbonyl)-pyrrolidin-3-yl]-N-methyl-isobutyramide] | – | –
9 | 1.41 | 309 | CC(=O)N1CCN(C(=O)N2C[C@@H](N(C)C(=O)C(C)(C)c3cc(C(F)(F)F)cc(C(F)(F)F)c3)[C@H](c3ccc(F)cc3)C2)CC1 (racemic) [Example 16, rac-N-[(3S,4R)-1-(4-Acetyl-piperazine-1-carbonyl)-4-(4-fluoro-phenyl)-pyrrolidin-3-yl]-2-(3,5-bis-trifluoromethyl-phenyl)-N-methyl-isobutyramide] | – | –
10 | 0.689 | 137 | Cc1cc(F)ccc1[C@@H]1CN(C(=O)N2CCN(S(C)(=O)=O)CC2)C[C@H]1N(C)C(=O)C(C)(C)c1cc(C(F)(F)F)cc(C(F)(F)F)c1 (racemic) [Example 28, rac-2-(3,5-Bis-trifluoromethyl-phenyl)-N-[(3S,4R)-4-(4-fluoro-2-methyl-phenyl)-1-(4-methanesulfonyl-piperazine-1-carbonyl)-pyrrolidin-3-yl]-N-methyl-isobutyramide] | – | –
11 | 2.35 | 457 | CN(C(=O)C(C)(C)c1cc(C(F)(F)F)cc(C(F)(F)F)c1)[C@@H]1CN(C(=O)N2CCOCC2)C[C@H]1c1ccc(Cl)cc1 (racemic) [Example 2, rac-2-(3,5-Bis-trifluoromethyl-phenyl)-N-[(3S,4R)-4-(4-chloro-phenyl)-1-(morpholine-4-carbonyl)-pyrrolidin-3-yl]-N-methyl-isobutyramide] | – | –
12 | 0.875 | 203 | CN(C(=O)C(C)(C)c1cc(C(F)(F)F)cc(C(F)(F)F)c1)[C@@H]1CN(C(=O)N2CCN(S(C)(=O)=O)CC2)C[C@H]1c1ccccc1 (racemic) [Example 22, rac-2-(3,5-Bis-trifluoromethyl-phenyl)-N-[(3S,4R)-1-(4-methanesulfonyl-piperazine-1-carbonyl)-4-phenyl-pyrrolidin-3-yl]-N-methyl-isobutyramide] | – | –
